Data on 8 compounds can be found in patent US11655235B2, “Pyrrolidine and piperidine compounds” (YUHAN CORPORATION, priority 2019, dated 2023).

What all share (format): biochemical
The target of one experiment is T1, recombinant human PREP (Homo sapiens, UniProt P48147).
T1 construct: purchased R&D System
T1 sequence (P48147 1-710): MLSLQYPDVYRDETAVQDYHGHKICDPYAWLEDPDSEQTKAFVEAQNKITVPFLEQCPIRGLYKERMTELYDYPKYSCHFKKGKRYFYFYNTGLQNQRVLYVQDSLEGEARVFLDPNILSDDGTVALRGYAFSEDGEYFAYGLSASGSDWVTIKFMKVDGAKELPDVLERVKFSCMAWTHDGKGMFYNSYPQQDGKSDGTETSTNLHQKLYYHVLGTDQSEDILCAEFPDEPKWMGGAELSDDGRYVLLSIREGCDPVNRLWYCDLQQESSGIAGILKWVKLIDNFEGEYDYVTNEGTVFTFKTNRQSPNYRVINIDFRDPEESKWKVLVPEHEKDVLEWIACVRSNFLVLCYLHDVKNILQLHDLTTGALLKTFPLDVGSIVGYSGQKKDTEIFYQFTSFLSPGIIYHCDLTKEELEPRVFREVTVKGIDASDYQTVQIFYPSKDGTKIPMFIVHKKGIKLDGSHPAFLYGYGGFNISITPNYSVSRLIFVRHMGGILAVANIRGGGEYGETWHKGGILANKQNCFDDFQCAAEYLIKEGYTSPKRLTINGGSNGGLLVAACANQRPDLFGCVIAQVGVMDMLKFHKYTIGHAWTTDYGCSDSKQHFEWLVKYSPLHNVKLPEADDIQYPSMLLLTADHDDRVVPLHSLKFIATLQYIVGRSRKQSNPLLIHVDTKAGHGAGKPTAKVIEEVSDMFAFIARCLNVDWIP
The experiment can be described thus: PREP inhibition, fluorogenic substrate Z-Gly-Pro-AMC. Particulars: Inhibitory Activity (IC50, nM) PREP, 25° C., Z-Gly-Pro-AMC substrate. The gist of the method: (§1)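 Inhibitors are titrated in an 8-point series into the enzyme's assay buffer (DMSO no more than 0.5%). Substrate cleavage at 25 °C is followed by fluorescence, excitation 380 nm and emission 460 nm. IC50 values come from a four-variable logistic model.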

A further experiment concerns the target DPP4 (Homo sapiens, UniProt P27487). The experiment can be described thus: DPP4 inhibition, fluorogenic substrate H-Gly-Pro-AMC. The arrangement: purchased R&D Systems. Particulars: 25° C., H-Gly-Pro-AMC substrate.
The next experiment addresses T2, recombinant human DPP9 (Homo sapiens, UniProt Q86TI2).
T2 construct: purchased R&D Systems
Put plainly: DPP9 inhibition, fluorogenic substrate H-Gly-Pro-AMC. Particulars: 25° C., H-Gly-Pro-AMC substrate. The gist of the method: as §1

A further experiment deals with T3, recombinant human DPP7 (Homo sapiens, UniProt Q9UHL4).
T3 construct: purchased R&D Systems
The experiment can be described thus: DPP7 inhibition, fluorogenic substrate Lys-Pro-AMC. The gist of the method: as §1

Another experiment has as its target T4, recombinant human DPP8 (Homo sapiens, UniProt Q6V1X1).
T4 construct: purchased PBS Bioscience
The experiment can be described thus: DPP8 inhibition, fluorogenic substrate Z-Ala-Pro-AMC. Particulars: 25° C., Z-Ala-Pro-AMC substrate. The method, then: The compounds according to the present technology were evaluated in terms of the inhibitory effect on the activity of dipeptidyl peptidases including FAP by using a substrate producing fluorescent substances upon enzymatic decomposition. The test was conducted at 25° C. to get a final reaction volume of 100 μL in a 96 black well plate. […] Briefly, the test compounds were dissolved in dimethyl sulfoxide (DMSO) at a concentration of 20 mM and then subjected to serial dilution, thereby creating an 8 point curve. As for the control group, a 6 point curve created by serial dilution of Talabostat in the same buffer solution was used. Fluorescence intensity was measured using a microplate reader (Flexstation3, Molecular Devices) under the wavelength condition exciting at 380 nm and reading the emission at 460 nm. The inhibitory effect of the test compounds was measured as a decrease (%) in the signal rate as compared to the control group without any inhibitor. Data was fixed to a logistic model with four variables and IC50 value was calculated using GraphPad Prism program. As for recombinant human DPP4 (R&D Systems), 25 mM tris (pH 8.0) buffer as a buffer solution and H-Gly-Pro-AMC (Bachem) as a substrate were used. As for recombinant human DPP7 (R&D Systems), 25 mM MES (pH 6.0) buffer as a buffer solution and Lys-Pro-AMC (Bachem) as a substrate were used. As for recombinant human DPP8 (PBS Bioscience), as a buffer solution, a 10 mM tris (pH 7.4) buffer comprising 10 mM of magnesium chloride and 0.05% of Tween 20, and Z-Ala-Pro-AMC (BPS Bioscience) as a substrate were used. As for recombinant human DPP9 (R&D Systems), a 25 mM tris (pH 8.0) buffer as a buffer solution and H-Gly-Pro-AMC (Bachem) as a substrate were used. As for recombinant human PREP (R&D System), as a buffer solution, a 25 mM tris (pH 7.5) buffer comprising 250 mM sodium chloride and 2.5 mM DTT (Dithiolthreitol), and Z-Gly-Pro-AMC (Bachem) as a substrate were used. The evaluation was made by using 10 ng of DPP4, PDD7, and PREP, 20 ng of DPP8, and 50 ng of DPP9 based on the final reaction. In the evaluation of DPP4, the test compounds were subjected to serial dilution in a buffer under the condition containing up to 0.1% of DMSO. In the evaluation of DPP7, DPP8, DPP9, and PREP, the test compounds were subjected to serial dilution in each buffer under the condition containing up to 0.5% of DMSO.

The next experiment deals with T5, Recombinant human FAP (Homo sapiens, UniProt Q12884).
T5 construct: purchased R&D systems
T5 sequence (Q12884 1-760): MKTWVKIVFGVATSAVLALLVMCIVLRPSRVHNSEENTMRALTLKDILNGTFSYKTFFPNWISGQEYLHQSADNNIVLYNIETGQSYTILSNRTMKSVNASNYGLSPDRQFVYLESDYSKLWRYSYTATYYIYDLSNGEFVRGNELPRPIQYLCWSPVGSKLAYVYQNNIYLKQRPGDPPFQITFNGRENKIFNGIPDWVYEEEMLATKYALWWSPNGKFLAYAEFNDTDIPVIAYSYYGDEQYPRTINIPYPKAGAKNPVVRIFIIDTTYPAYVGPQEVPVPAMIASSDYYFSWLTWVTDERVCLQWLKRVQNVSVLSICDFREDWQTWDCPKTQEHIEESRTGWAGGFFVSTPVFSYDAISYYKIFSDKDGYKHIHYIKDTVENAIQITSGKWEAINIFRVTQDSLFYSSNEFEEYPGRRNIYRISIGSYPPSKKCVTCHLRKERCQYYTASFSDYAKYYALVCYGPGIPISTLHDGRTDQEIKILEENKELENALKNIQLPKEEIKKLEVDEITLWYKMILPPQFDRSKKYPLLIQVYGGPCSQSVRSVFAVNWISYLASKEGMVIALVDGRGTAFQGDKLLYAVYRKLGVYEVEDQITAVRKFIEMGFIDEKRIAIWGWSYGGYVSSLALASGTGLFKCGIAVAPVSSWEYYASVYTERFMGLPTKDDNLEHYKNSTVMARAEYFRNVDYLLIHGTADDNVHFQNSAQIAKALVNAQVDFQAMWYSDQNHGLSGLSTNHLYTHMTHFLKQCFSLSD
The experiment can be described thus: FAP inhibition, fluorogenic substrate Z-Gly-Pro-AMC. Particulars: 25° C., Z-Gly-Pro-AMC substrate. The method, boiled down: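 Eight-point compound dilutions (≤0.1% DMSO) were incubated at 25° C with 10 ng recombinant human FAP in Tris pH 7.5/1 M NaCl/BSA buffer and Z-Gly-Pro-AMC. Inhibition was taken as % drop in fluorescence rate (380/460 nm) against uninhibited control; IC50 came from a four-parameter logistic fit.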

Chain of DPP4 (P27487 whole entry): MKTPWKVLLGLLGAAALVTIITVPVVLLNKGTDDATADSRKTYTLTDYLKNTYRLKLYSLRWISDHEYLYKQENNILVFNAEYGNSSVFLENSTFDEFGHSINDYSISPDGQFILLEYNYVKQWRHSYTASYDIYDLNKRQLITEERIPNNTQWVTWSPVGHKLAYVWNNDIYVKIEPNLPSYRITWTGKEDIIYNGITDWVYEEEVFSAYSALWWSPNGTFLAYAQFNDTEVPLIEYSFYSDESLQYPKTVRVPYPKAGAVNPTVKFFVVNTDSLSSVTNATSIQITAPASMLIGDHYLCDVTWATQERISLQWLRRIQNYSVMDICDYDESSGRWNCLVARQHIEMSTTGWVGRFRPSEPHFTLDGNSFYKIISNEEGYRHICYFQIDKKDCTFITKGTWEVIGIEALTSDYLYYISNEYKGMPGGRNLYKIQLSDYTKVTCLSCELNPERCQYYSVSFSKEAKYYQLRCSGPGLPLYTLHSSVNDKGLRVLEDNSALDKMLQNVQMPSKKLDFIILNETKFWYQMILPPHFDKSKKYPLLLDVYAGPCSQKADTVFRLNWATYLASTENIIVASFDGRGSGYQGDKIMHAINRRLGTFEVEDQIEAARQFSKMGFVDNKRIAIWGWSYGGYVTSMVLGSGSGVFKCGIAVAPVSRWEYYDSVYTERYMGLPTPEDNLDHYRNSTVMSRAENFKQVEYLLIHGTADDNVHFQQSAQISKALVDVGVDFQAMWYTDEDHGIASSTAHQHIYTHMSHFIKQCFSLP
T4 sequence (Q6V1X1 whole entry): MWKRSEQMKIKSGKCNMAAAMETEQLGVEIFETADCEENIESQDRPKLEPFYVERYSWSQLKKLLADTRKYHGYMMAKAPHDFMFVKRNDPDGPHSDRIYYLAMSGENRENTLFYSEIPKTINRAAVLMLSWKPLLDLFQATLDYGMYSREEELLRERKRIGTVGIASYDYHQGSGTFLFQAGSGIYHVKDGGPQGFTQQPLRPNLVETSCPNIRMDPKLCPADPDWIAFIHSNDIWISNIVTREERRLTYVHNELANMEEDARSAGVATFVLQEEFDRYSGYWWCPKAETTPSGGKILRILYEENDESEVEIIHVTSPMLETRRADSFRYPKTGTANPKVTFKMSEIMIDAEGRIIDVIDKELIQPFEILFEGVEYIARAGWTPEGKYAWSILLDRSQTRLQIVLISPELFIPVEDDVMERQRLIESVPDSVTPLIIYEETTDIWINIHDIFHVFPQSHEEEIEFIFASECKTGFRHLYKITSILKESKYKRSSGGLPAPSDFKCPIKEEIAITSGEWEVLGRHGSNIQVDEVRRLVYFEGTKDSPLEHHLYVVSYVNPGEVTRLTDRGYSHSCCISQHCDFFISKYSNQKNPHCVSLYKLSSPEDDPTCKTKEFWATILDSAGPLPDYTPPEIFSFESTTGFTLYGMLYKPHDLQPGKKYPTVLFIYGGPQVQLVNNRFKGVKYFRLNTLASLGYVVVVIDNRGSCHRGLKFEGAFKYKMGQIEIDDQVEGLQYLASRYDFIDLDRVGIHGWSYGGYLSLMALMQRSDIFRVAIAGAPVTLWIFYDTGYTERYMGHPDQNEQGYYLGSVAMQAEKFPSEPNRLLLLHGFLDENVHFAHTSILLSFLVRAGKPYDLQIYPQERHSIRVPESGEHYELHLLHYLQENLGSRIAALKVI
T2 sequence (Q86TI2 whole entry): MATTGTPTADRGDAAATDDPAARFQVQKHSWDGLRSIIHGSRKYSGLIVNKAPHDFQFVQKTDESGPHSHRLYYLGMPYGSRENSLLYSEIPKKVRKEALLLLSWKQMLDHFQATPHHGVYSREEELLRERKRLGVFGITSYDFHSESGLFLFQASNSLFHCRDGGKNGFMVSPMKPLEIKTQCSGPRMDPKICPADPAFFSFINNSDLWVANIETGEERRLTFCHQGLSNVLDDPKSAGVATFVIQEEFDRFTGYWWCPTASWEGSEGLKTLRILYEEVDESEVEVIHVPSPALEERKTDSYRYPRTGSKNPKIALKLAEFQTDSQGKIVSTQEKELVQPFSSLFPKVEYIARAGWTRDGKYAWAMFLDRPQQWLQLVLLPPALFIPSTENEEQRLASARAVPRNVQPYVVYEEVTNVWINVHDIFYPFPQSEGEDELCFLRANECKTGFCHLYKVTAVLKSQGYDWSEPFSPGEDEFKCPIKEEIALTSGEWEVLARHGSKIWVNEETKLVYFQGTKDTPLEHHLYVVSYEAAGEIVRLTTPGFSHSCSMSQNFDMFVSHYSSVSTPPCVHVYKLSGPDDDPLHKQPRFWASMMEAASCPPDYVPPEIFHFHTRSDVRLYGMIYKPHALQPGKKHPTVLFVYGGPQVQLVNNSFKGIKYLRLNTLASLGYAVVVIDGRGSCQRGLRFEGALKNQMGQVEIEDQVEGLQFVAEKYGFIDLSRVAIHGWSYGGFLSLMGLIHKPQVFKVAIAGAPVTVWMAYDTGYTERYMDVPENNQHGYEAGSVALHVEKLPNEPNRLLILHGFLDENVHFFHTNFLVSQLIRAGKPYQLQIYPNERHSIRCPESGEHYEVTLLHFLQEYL

`N#C[C@@H]1CC(F)(F)CN1C(=O)CN1CC[C@H](Nc2cnc3ccccc3c2)C1` [Example 6, (S)-4,4-difluoro-1-(2-((S)-3-(quinolin-3-ylamino)pyrrolidin-1-yl)acetyl)pyrrolidine-2-carbonitrile]: the IC50 (commonly the concentration that inhibits the measured activity by half) on recombinant human PREP was over 100000 nM; at DPP4 it was over 1 µM; on recombinant human DPP9, 5.71 µM; on recombinant human DPP7, 0.0462 µM; at recombinant human DPP8, 7.89 µM; on Recombinant human FAP, 0.00183 µM.

With `N#C[C@@H]1CC(F)(F)CN1C(=O)CN1CC[C@H](Nc2ccnc3ccccc23)C1` [Example 7, (S)-4,4-difluoro-1-(2-((S)-3-(quinolin-4-ylamino)pyrrolidin-1-yl)acetyl)pyrrolidine-2-carbonitrile], the IC50 at recombinant human PREP was over 100000 nM; on DPP4 it was over 1 µM; at recombinant human DPP9, 12.8 µM; at recombinant human DPP7 it was under 0.03 µM; at recombinant human DPP8, 97.6 µM; at Recombinant human FAP it was 0.00046 µM.

Take `N#C[C@@H]1CC(F)(F)CN1C(=O)CN1CC[C@H](Nc2cncc3ccccc23)C1` [Example 8, (S)-4,4-difluoro-1-(2-((S)-3-(isoquinolin-4-ylamino)pyrrolidin-1-yl)acetyl)pyrrolidine-2-carbonitrile]: the IC50 at recombinant human PREP is over 100000 nM; against DPP4, over 1 µM; on recombinant human DPP9, 0.488 µM; on recombinant human DPP7, under 0.03 µM; on recombinant human DPP8, 5.79 µM; at Recombinant human FAP, 0.0011 µM.

Turning to `N#C[C@@H]1CC(F)(F)CN1C(=O)CN1CC[C@H](Nc2cccc3sccc23)C1` [Example 9, (S)-1-(2-((S)-3-(benzo[b]thiophen-4-ylamino)pyrrolidin-1-yl)acetyl)-4,4-difluoropyrrolidine-2-carbonitrile], the IC50 on recombinant human PREP was over 100000 nM; against DPP4 it was over 1 µM; on recombinant human DPP9, 12.3 µM; at recombinant human DPP7 it was 0.0751 µM; at recombinant human DPP8, 0.213 µM; at Recombinant human FAP, 0.0011 µM.

Take `N#C[C@@H]1CC(F)(F)CN1C(=O)CN1CC[C@H](Nc2cccc3ccsc23)C1` [Example 10, (S)-1-(2-((S)-3-(benzo[b]thiophen-7-ylamino)pyrrolidin-1-yl)acetyl)-4,4-difluoropyrrolidine-2-carbonitrile]: the IC50 is over 100000 nM on recombinant human PREP; over 1 µM on DPP4; 9.98 µM at recombinant human DPP9; 0.075 µM at recombinant human DPP7; 0.143 µM at recombinant human DPP8; 0.0032 µM at Recombinant human FAP.

In the case of `N#C[C@@H]1CC(F)(F)CN1C(=O)CN1CC[C@H](Nc2cccc3ccoc23)C1` [Example 11, (S)-1-(2-((S)-3-(benzofuran-7-ylamino)pyrrolidin-1-yl)acetyl)-4,4-difluoropyrrolidine-2-carbonitrile], the concentration for half-maximal inhibition (IC50) on recombinant human PREP is over 100000 nM; against DPP4, over 1 µM; at recombinant human DPP9, 17.1 µM; at recombinant human DPP7, 0.0956 µM; at recombinant human DPP8, 0.228 µM; at Recombinant human FAP, 0.0013 µM.

Consider `N#C[C@@H]1CC(F)(F)CN1C(=O)CN1CC[C@H](Nc2cncc3ccoc23)C1` [Example 12, (S)-4,4-difluoro-1-(2-((S)-3-(furo[3,2-c]pyridin-7-ylamino)pyrrolidin-1-yl)acetyl)pyrrolidine-2-carbonitrile], for which the IC50 on recombinant human PREP is over 100000 nM; on DPP4 it was over 1 µM; at recombinant human DPP9, 17.7 µM; at recombinant human DPP7 it was under 0.03 µM; on recombinant human DPP8, 0.371 µM; at Recombinant human FAP it was 0.0005 µM.

In the case of `N#C[C@@H]1CC(F)(F)CN1C(=O)CN1CC[C@H](Nc2ccccc2-c2ccccc2)C1` [Example 13, (S)-1-(2-((S)-3-([1,1′-biphenyl]-2-ylamino)pyrrolidin-1-yl)acetyl)-4,4-difluoropyrrolidine-2-carbonitrile], the IC50 was over 100000 nM at recombinant human PREP; over 1 µM against DPP4; 56.5 µM at recombinant human DPP9; 0.243 µM at recombinant human DPP7; 0.163 µM at recombinant human DPP8; 0.0246 µM on Recombinant human FAP.
